Data reported in PMC11864979, “First-in-class ultralong-target-residence-time p38α inhibitors as a mitosis-targeted therapy for colorectal cancer” (Nature Cancer, 2025).
Like-named read-outs stand apart in the source and are kept apart here.

How the values were obtained:
Assay in all cases: selectivity profiling in a panel of 340 wild-type kinases (Reaction Biology Europe)
Format in all cases: binding
340 wild-type kinases [1] = molecular target: T1, 340 wild-type kinases (Homo sapiens, UniProt P08631)
T1 construct: purchased Reaction Biology Europe

340 wild-type kinases [2] = molecular target: T2, 340 wild-type kinases (Homo sapiens, UniProt P27037)
T2 construct: purchased Reaction Biology Europe

340 wild-type kinases [3] = molecular target: T3, 340 wild-type kinases (Homo sapiens, UniProt Q13131)
T3 construct: purchased Reaction Biology Europe

340 wild-type kinases [4] = molecular target: T4, 340 wild-type kinases (Homo sapiens, UniProt Q9H0K1)
T4 construct: purchased Reaction Biology Europe

340 wild-type kinases [5] = molecular target: T5, 340 wild-type kinases (Homo sapiens, UniProt Q8N5S9)
T5 construct: purchased Reaction Biology Europe

340 wild-type kinases [6] = molecular target: T6, 340 wild-type kinases (Homo sapiens, UniProt Q9BWU1)
T6 construct: purchased Reaction Biology Europe

340 wild-type kinases [7] = molecular target: T7, 340 wild-type kinases (Homo sapiens, UniProt Q8TD08)
T7 construct: purchased Reaction Biology Europe
T7 sequence (Q8TD08 1-544): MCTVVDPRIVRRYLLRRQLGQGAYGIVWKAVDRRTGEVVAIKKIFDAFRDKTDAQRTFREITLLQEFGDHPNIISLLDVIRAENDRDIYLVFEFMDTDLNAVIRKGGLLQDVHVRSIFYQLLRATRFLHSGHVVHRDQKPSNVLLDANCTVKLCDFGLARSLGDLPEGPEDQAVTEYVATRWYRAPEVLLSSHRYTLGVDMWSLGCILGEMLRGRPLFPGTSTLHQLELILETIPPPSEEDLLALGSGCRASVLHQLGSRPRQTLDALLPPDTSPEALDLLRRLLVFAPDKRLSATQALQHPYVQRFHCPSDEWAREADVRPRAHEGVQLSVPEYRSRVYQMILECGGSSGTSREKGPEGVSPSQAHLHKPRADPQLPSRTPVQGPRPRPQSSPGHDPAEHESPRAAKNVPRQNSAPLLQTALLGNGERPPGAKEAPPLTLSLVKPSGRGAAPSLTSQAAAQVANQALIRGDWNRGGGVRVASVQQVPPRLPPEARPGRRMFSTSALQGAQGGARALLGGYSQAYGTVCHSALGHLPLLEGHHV

340 wild-type kinases [8] = molecular target: T8, 340 wild-type kinases (Homo sapiens, UniProt Q9Y4K4)
T8 construct: purchased Reaction Biology Europe

340 wild-type kinases [9] = molecular target: T9, 340 wild-type kinases (Homo sapiens, UniProt P29323)
T9 construct: purchased Reaction Biology Europe
T9 sequence (P29323 19-1055): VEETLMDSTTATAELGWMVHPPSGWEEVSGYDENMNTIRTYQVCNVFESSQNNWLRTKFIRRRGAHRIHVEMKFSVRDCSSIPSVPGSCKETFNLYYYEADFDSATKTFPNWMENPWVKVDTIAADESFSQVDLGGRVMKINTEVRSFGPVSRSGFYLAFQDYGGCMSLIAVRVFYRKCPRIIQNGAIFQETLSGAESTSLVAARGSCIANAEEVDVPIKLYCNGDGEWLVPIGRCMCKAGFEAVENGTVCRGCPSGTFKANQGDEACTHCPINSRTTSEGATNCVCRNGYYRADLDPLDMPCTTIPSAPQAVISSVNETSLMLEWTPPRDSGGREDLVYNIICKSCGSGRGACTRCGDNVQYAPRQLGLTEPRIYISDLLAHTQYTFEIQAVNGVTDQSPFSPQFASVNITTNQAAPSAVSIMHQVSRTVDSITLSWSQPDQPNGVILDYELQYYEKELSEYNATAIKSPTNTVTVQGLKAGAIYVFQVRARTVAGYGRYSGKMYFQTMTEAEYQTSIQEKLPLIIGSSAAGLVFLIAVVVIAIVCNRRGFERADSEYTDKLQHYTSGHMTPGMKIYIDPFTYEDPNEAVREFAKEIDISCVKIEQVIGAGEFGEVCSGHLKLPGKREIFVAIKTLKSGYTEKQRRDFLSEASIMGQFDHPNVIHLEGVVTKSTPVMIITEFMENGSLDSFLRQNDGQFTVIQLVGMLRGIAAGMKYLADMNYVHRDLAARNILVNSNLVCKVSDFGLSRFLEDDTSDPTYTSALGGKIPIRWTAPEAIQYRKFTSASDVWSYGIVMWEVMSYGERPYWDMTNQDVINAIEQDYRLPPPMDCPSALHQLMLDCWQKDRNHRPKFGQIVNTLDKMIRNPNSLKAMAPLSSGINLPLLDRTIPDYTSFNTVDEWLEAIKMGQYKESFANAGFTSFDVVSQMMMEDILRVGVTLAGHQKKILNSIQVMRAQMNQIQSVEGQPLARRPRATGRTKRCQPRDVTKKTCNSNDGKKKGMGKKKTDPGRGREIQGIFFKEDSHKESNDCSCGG

340 wild-type kinases [10] = molecular target: T10, 340 wild-type kinases (Homo sapiens, UniProt P07332)
T10 construct: purchased Reaction Biology Europe

340 wild-type kinases [11] = molecular target: T11, 340 wild-type kinases (Homo sapiens, UniProt P19525)
T11 construct: purchased Reaction Biology Europe
T11 sequence (P19525 whole entry): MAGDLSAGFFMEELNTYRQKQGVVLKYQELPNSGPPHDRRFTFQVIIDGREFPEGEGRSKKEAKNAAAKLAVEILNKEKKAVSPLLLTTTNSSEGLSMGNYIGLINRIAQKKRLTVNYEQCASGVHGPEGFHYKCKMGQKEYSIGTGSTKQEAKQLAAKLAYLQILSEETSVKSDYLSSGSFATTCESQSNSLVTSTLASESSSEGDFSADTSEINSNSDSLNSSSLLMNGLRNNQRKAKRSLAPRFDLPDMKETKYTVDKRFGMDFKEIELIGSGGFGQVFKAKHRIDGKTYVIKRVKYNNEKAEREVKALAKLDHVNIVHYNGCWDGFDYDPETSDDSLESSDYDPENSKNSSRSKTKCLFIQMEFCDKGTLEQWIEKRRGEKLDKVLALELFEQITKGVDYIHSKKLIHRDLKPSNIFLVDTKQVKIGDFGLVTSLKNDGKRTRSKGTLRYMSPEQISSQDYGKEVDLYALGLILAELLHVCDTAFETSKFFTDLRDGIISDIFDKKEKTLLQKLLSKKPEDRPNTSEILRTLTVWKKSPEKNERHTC

T2 sequence (P27037 20-513): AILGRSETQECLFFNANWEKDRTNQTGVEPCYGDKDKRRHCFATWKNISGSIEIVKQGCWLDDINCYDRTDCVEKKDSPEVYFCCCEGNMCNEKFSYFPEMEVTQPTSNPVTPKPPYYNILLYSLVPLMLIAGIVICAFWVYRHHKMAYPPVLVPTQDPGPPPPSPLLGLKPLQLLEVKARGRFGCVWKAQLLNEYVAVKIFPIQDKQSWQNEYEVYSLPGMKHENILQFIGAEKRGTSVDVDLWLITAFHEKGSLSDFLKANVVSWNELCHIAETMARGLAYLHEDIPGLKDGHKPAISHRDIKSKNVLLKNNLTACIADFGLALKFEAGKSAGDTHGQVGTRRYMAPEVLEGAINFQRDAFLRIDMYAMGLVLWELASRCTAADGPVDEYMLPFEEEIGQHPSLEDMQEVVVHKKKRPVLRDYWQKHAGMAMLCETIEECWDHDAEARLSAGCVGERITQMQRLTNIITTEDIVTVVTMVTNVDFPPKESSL
T6 sequence (Q9BWU1 whole entry): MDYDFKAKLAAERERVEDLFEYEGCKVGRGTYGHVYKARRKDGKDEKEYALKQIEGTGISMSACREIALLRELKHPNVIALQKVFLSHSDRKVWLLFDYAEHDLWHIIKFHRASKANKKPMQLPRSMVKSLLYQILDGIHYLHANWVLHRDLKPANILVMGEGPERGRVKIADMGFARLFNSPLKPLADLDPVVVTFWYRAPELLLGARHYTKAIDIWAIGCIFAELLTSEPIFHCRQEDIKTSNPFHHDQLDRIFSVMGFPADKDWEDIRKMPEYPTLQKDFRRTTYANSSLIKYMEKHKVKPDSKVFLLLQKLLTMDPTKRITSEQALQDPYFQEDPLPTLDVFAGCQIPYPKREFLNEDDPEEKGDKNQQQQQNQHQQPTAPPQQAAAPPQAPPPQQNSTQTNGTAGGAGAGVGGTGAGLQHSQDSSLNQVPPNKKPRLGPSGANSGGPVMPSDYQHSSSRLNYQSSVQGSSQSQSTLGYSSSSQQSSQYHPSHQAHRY
T10 sequence (P07332 whole entry): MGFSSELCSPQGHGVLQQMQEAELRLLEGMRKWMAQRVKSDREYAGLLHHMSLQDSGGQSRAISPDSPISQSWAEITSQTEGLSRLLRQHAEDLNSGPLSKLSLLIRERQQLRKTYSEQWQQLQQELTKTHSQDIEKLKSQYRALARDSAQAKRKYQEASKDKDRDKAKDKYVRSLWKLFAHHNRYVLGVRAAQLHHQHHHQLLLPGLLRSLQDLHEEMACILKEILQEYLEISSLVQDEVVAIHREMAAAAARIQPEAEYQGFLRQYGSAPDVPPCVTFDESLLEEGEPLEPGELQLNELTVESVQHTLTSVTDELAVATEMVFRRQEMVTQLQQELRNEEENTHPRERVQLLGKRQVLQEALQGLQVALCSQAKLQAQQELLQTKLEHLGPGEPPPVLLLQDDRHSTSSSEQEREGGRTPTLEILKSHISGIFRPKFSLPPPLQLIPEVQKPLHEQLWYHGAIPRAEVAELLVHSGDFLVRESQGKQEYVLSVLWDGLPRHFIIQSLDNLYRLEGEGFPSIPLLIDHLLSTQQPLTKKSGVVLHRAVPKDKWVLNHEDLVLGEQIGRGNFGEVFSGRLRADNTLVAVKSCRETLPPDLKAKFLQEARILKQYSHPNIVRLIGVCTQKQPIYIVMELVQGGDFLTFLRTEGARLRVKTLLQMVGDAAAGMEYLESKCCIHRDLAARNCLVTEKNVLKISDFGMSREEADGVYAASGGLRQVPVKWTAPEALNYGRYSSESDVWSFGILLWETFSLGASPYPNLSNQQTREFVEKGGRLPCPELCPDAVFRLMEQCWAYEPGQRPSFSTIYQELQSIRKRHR
T8 sequence (Q9Y4K4 whole entry): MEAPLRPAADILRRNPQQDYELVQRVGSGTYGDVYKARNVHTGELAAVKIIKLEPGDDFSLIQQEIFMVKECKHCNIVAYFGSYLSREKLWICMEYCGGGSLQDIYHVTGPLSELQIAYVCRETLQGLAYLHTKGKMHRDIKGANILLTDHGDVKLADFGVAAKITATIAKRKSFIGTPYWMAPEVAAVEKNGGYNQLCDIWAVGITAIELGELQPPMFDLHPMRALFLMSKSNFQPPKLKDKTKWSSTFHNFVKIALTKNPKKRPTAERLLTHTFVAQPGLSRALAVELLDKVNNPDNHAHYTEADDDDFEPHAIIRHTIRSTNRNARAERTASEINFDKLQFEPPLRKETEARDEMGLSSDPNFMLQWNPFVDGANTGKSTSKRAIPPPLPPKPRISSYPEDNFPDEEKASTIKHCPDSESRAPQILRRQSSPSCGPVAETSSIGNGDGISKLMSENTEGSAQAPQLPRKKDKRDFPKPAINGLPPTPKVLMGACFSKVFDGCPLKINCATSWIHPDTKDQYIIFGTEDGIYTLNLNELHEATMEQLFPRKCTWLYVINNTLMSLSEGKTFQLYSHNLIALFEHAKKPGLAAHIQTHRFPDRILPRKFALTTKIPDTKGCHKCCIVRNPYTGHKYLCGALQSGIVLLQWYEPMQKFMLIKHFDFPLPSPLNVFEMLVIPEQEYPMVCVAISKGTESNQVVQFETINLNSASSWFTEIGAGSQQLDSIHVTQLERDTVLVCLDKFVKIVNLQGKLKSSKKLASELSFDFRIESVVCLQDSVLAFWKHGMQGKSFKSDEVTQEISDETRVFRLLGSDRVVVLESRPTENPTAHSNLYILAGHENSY
T1 sequence (P08631 whole entry): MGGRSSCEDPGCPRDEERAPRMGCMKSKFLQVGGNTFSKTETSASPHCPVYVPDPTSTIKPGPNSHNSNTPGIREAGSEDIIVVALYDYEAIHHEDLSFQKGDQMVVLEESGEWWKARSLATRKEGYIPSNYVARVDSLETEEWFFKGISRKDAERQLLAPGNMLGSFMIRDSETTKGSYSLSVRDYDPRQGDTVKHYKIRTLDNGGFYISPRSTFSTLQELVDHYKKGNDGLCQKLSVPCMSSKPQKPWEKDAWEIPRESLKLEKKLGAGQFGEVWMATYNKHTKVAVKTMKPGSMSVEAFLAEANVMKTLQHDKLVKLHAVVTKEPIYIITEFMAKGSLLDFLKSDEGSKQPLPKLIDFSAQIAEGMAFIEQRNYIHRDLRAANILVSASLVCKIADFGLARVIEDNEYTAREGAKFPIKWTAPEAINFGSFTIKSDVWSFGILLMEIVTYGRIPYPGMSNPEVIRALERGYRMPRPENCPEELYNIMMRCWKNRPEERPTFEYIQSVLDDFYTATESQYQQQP
T4 sequence (Q9H0K1 whole entry): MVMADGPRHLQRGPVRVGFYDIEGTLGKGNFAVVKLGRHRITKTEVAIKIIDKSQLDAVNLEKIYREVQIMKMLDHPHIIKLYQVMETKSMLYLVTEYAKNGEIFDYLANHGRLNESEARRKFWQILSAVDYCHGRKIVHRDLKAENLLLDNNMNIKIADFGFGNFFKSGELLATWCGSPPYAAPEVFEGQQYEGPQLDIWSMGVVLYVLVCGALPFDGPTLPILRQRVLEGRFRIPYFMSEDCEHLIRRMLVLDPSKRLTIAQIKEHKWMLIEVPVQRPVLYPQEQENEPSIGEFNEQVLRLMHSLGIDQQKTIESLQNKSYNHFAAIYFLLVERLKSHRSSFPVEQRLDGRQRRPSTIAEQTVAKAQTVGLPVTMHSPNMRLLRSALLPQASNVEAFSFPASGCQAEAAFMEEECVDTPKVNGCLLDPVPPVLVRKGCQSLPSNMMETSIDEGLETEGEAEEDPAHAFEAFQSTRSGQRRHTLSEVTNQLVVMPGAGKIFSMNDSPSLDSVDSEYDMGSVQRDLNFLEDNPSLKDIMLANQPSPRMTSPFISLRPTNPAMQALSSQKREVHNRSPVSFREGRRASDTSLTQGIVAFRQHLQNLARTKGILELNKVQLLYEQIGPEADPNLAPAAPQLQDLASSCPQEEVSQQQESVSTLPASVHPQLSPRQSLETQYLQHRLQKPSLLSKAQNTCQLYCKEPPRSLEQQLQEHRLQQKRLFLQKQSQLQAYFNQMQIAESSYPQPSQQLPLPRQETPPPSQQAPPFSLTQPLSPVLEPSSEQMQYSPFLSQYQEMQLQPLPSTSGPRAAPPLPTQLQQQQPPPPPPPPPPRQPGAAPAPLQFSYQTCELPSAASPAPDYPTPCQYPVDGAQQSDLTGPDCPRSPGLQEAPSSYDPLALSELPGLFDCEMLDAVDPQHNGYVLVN

For `CNC(=O)c1ccc2c(c1)C(=O)c1ccc(Nc3ccc(F)c(NC(=O)C4CC4)c3)cc1CC2` [Compound 2015], the remaining activity at 0.2 µM (340 wild-type kinases [1]; 0.2 µM 2015, read-out: HCK residual activity) was 124%, the remaining activity at 1 µM (340 wild-type kinases [1]; 1 µM 2015, read-out: HCK residual activity) was 109% and the remaining activity at 0.2 µM (340 wild-type kinases [1]; HCK, 0.2 µM, read-out: residual activity) was 124%. For the same compound, the remaining activity at 1 µM (340 wild-type kinases [1]; HCK, 1 µM, read-out: residual activity) was 109%, the remaining activity at 0.2 µM (340 wild-type kinases [2]; 0.2 µM 2015, read-out: ACVR2A residual activity) was 119% and the remaining activity at 1 µM (340 wild-type kinases [2]; 1 µM 2015, read-out: ACVR2A residual activity) was 104%. The remaining activity at 0.2 µM (340 wild-type kinases [2]; ACVR2A, 0.2 µM, read-out: residual activity) was 119%, the remaining activity at 1 µM (340 wild-type kinases [2]; ACVR2A, 1 µM, read-out: residual activity) was 104% and the remaining activity at 0.2 µM (340 wild-type kinases [3]; 0.2 µM 2015, read-out: AMPKalpha1 residual activity) was 91.7%. For the same compound, the remaining activity at 1 µM (340 wild-type kinases [3]; 1 µM 2015, read-out: AMPKalpha1 residual activity) was 101%, the remaining activity at 0.2 µM (340 wild-type kinases [3]; AMPKalpha1, 0.2 µM, read-out: residual activity) was 91.8% and the remaining activity at 1 µM (340 wild-type kinases [3]; AMPKalpha1, 1 µM, read-out: residual activity) was 101%. The remaining activity at 0.2 µM (340 wild-type kinases [4]; 0.2 µM 2015, read-out: SIK2 residual activity) was 101%, the remaining activity at 1 µM (340 wild-type kinases [4]; 1 µM 2015, read-out: SIK2 residual activity) was 98.1% and the remaining activity at 0.2 µM (340 wild-type kinases [4]; SIK2, 0.2 µM, read-out: residual activity) was 101%. The remaining activity at 1 µM (340 wild-type kinases [4]; SIK2, 1 µM, read-out: residual activity) was 98.1%, the remaining activity at 0.2 µM (340 wild-type kinases [5]; 0.2 µM 2015, read-out: CAMKK1 residual activity) was 123% and the remaining activity at 1 µM (340 wild-type kinases [5]; 1 µM 2015, read-out: CAMKK1 residual activity) was 106%. For the same compound, the remaining activity at 0.2 µM (340 wild-type kinases [5]; CAMKK1, 0.2 µM, read-out: residual activity) was 123%, the remaining activity at 1 µM (340 wild-type kinases [5]; CAMKK1, 1 µM, read-out: residual activity) was 106% and the remaining activity at 0.2 µM (340 wild-type kinases [6]; 0.2 µM 2015, read-out: CDK19/CycC residual activity) was 99.8%. For the same compound, the remaining activity at 1 µM (340 wild-type kinases [6]; 1 µM 2015, read-out: CDK19/CycC residual activity) was 96.4%, the remaining activity at 0.2 µM (340 wild-type kinases [6]; CDK19/CycC, 0.2 µM, read-out: residual activity) was 99.8% and the remaining activity at 1 µM (340 wild-type kinases [6]; CDK19/CycC, 1 µM, read-out: residual activity) was 96.4%. For the same compound, the remaining activity at 0.2 µM (340 wild-type kinases [7]; 0.2 µM 2015, read-out: ERK7 residual activity) was 93%, the remaining activity at 1 µM (340 wild-type kinases [7]; 1 µM 2015, read-out: ERK7 residual activity) was 82.2% and the remaining activity at 0.2 µM (340 wild-type kinases [7]; ERK7, 0.2 µM, read-out: residual activity) was 93%. The remaining activity at 1 µM (340 wild-type kinases [7]; ERK7, 1 µM, read-out: residual activity) was 82.2%, the remaining activity at 0.2 µM (340 wild-type kinases [8]; 0.2 µM 2015, read-out: MAP4K5 residual activity) was 101% and the remaining activity at 1 µM (340 wild-type kinases [8]; 1 µM 2015, read-out: MAP4K5 residual activity) was 91.4%. The remaining activity at 0.2 µM (340 wild-type kinases [8]; MAP4K5, 0.2 µM, read-out: residual activity) was 101%, the remaining activity at 1 µM (340 wild-type kinases [8]; MAP4K5, 1 µM, read-out: residual activity) was 91.4% and the remaining activity at 0.2 µM (340 wild-type kinases [9]; 0.2 µM 2015, read-out: EPHB2 residual activity) was 97.4%. It also gave a remaining activity at 1 µM (340 wild-type kinases [9]; 1 µM 2015, read-out: EPHB2 residual activity) of 98.5%, a remaining activity at 0.2 µM (340 wild-type kinases [9]; EPHB2, 0.2 µM, read-out: residual activity) of 97.4% and a remaining activity at 1 µM (340 wild-type kinases [9]; EPHB2, 1 µM, read-out: residual activity) of 98.5%. The remaining activity at 0.2 µM (340 wild-type kinases [10]; 0.2 µM 2015, read-out: FES residual activity) was 105%, the remaining activity at 1 µM (340 wild-type kinases [10]; 1 µM 2015, read-out: FES residual activity) was 92.1% and the remaining activity at 0.2 µM (340 wild-type kinases [10]; FES, 0.2 µM, read-out: residual activity) was 105%. For the same compound, the remaining activity at 1 µM (340 wild-type kinases [10]; FES, 1 µM, read-out: residual activity) was 92.1%, the remaining activity at 0.2 µM (340 wild-type kinases [11]; 0.2 µM 2015, read-out: EIF2AK2 residual activity) was 84.5% and the remaining activity at 1 µM (340 wild-type kinases [11]; 1 µM 2015, read-out: EIF2AK2 residual activity) was 85.2%. For the same compound, the remaining activity at 0.2 µM (340 wild-type kinases [11]; EIF2AK2, 0.2 µM, read-out: residual activity) was 84.5% and the remaining activity at 1 µM (340 wild-type kinases [11]; EIF2AK2, 1 µM, read-out: residual activity) was 85.2%.
